From patent US11364280B2, “Method for blocking stress-induced tumor progression” (Taipei Veterans General Hospital, priority 2018, dated 2022)
No end group written: not given here.

Experiments:
[1] = biological target: T1, His-tagged AGO2 recombinant protein (Homo sapiens, UniProt Q9UKV8); experiment: Affinity measurement by surface plasmon resonance (SPR); format: binding; settings: AGO2 immobilized on CM5 chip; peptide serial dilution 625 to 10000 nM; Langmuir 1:1 model; read-out: equilibrium dissociation constant (KD)
T1 construct: made in house; host or cells: High Five insect cells (baculovirus, Bac-To-Bac; virus made in Sf9)
Experimental: (§1) The relative orientation of peptide-binding site and AGO2 pocket was depicted. […] The recombinant AGO2 protein was immobilized on CM5 chip and incubated with a serial dilution (from 625 to 10000 nM) of the two peptides, respectively. The association and dissociation between TAT-11, TAT-26 and immobilized AGO2 were tested by SPR (top). The association rate constant (Ka), dissociation rate constant (Kd), and equilibrium dissociation constant (KD) were calculated and presented in the chart (bottom).
A Biacore T200 (GE Healthcare) was used to study the binding affinity of the TAT-11 and TAT-26 peptides with recombinant His-tagged AGO2 protein. The recombinant His-AGO2 and TAT peptides were diluted in HBS-P buffer ([…], 150 mM NaCl and 0.005% P20, pH 7.4). To evaluate the binding affinity, recombinant His-AGO2 was immobilized on a CM5 sensor chip (GE Healthcare, BR100012) via amine coupling (˜7000 RU) for 3600 sec at rate of 5 μl/mins, followed by dissociation for 600 s. After injection of each peptide, the surface was regenerated with an injection of 10 mM NaOH. All sensorgrams were double referenced by subtracting the surface effect from the control flow […] and the buffer effect form the blank buffer. The kinetic values Ka, Kd and KD were obtained using Biacore […] Evaluation Software (GE healthcare) assuming the Langmuir 1:1 binding model.

[2] = tested on: MSI1/AGO2 downstream mRNA; experiment: qRT-PCR of downstream mRNA targets of MSI1-AGO2, hypoxia versus normoxia; format: cell-based, human; settings: six targets
Experimental: FIG. 4A provides a schematic illustrating the full-length and C-terminal (C-term) fragment of human MSI1. The construct of MSI1 C-term was sub-cloned into p-3×Flag-Myc-CMV expression vector. […] Quantification of the fold changes of binding signals was performed by normalizing IP signals to IgG-precipitated controls. The peaks indicated MSI1 or AGO2 palindromic-binding sequence. […] Purified total RNA was subjected to RT-PCR using primers specific for NF2, TP53, CDKN1A, CCND1, CDK4, and HELLS. The mRNA levels under hypoxia were normalized with that under normoxia and presented as relative fold changes in the chart. […] The relative fold change of the number of viable cells in each day was presented in the graph. […] Xenograft tumor size was monitored from day 2 after injection of Flag-control or Flag-C-term. […] Tumor size was then monitored for 22 days. The expression of MIS1-C-term in the xenograft tumor tissue was assessed by Western blot. […] […]
Oligonucleotide specificity was computer tested (BLAST, National Center for Biotechnology Information. Bethesda. Md., USA) by homology search with the human genome and later confirmed by melting curve analysis. […] Signals were detected using 7900HT Fast Real-time PCR system (Applied Biosystems, Foster City, Calif., USA). […]

[3] = in vitro; settings: human
Experimental: (§2) After 0.5, 1, 2, 4 and 6 hours, cell lysates were collected and the fluorescent intensity was detected by ELISA reader. N=3 at each time point. […] Cells were washed and observed under microscopy at the indicated time points. […] To facilitate comparison of intake and degradation dynamics, mean fluorescence values were normalized to stating fluorescence. All data represent three independent experiments.

[4] = biological target: T2, MSI1/AGO2 interaction (Homo sapiens, UniProt Q9UKV8); experiment: Co-immunoprecipitation of endogenous MSI1 and AGO2 under hypoxia; format: cell-based; design: endogenous in cells; settings: 10 μM peptide, hypoxic condition
[5] = biological target: T2, MSI1/AGO2 interaction; experiment: Split Gaussia luciferase reconstitution reporter assay; format: cell-based; design: expressed in transfected cells; lysates used for the in vitro read-out
Experimental: as §1
FIG. 14A provides schematic presentation of the constructs of full-length, C-terminus, and N-terminus of MSI1 as well as wild-type AGO2 for purifying recombinant proteins. FIG. 14B provides pull-down assay with recombinant MSI1 and AGO2 proteins showing that the C-terminus of MSI1 is essential for the direct MSI1/AGO2 interaction. […] FIG. 14D provides the schematic illustration of the split luciferase reconstitution imaging system to real-time monitor the interaction between MSI1 and AGO2.
To use Gaussia luciferase (Gluc) for detecting protein-protein interaction, we split Gaussia luciferase into NGluc (N-terminal Gluc, 106 a.a.) and CGluc (C-terminal Glue. 79 a.a.)^53,54. The two fragments were amplified by polymerase chain reaction (PCR) and subjected to construct fusion protein with MSI1 and AGO2 by the pcDNA 3.1 and pCMV backbone, respectively. Each fusion protein contains a flexible linker (GGGGS)2 between the protein and polypeptides of split luciferase^55,56. Stable cell lines were obtained by stable transfection of both fusion protein expressive plasmids in 05 MG GBM cell line with Hygromycin B (Sigma Aldrich Co., St. Louis, […]., USA) and G418 sulfate (Merck Co., Berlin, Germany). […] The bioluminescent signals were acquired by Wallac 1420 Victor^2 Microplate Reader (Perkin Elmer, Waltham. Mass., USA) equipped with auto-dispenser to avoid rapid decay of GLuc. […] The region of interests (ROI) was automatically chosen by the Living Image 4.2 software and quantified as photon flux in a certain area per second (photons/s/cm^2).

[6] = tested on: 05 MG cells; experiment: Cellular uptake of fluorescein labeled peptides, fluorescence read by ELISA reader
Experimental: The biological activity of peptides was tested in 05 MG cell line. The cells were treated with different concentration of fluorescein labeled peptides and was measured using ELISA reader.
as §2

[7] = tested on: MSI1 translocation into the cytosol in 05 MG cells; experiment: MSI1 subcellular translocation (immunostaining, fractionation immunoblot); format: cell-based, human; settings: cisplatin 30 μM, 24 hours
Experimental: Magnifying power: 200× (top) and 600× (bottom). Quantitation of cells expressing cytoplasmic or nuclear MSI1 is shown in the bar graph on the right. FIG. 1B 05 MG cells pre-treated with or without nuclear export inhibitor leptomycinB (LMB) (10 ng/mL, 2 h) under normoxia or hypoxia conditions for 24 hr were subjected to anti-MSI1 (green) immunostaining and DAPI (blue) nuclear counterstaining. Images were acquired from Carl Zeiss confocal microscope system. The intensity of green fluorescence in nuclear and cytosol was quantified and shown as relative percentage in the graph at the right. […] FIG. 1D provides a schematic showing the mutation sites in the NLS (orange) and NES (red) of human MSI1. All constructs were sub-cloned into p-3×Flag-Myc-CMV expression vector. […] Images were acquired from Carl Zeiss confocal microscope system, and the quantification of fluorescent intensity in the nuclear and cytosolic compartments was shown as relative percentage in the graph at the left. […] Tumor size was measure with a caliper at the indicated time points. […] The tumor size was measured with a caliper at the indicated time points. […]
The ratio of MSI1 expression in each group was presented in the graph. […] Hypoxia-induced apoptosis was withdrawn by the over-expression of wild-type MSI1 but not in mutant MSI1 groups determined by annexin V staining, MTT assay, and colony forming assay. […]

[8] = tested on: 05 MG/MSI1-wt xenografts; experiment: Cisplatin treatment of subcutaneous xenografts overexpressing MSI1-wt; format: in vivo, mice; settings: 477.437 mm^3 without cisplatin
Experimental: Magnifying power: 200× (top) and 600× (bottom). Quantitation of cells expressing cytoplasmic or nuclear MSI1 is shown in the bar graph on the right. FIG. 1B 05 MG cells pre-treated with or without nuclear export inhibitor leptomycinB (LMB) (10 ng/mL, 2 h) under normoxia or hypoxia conditions for 24 hr were subjected to anti-MSI1 (green) immunostaining and DAPI (blue) nuclear counterstaining. Images were acquired from Carl Zeiss confocal microscope system. The intensity of green fluorescence in nuclear and cytosol was quantified and shown as relative percentage in the graph at the right. […] FIG. 1D provides a schematic showing the mutation sites in the NLS (orange) and NES (red) of human MSI1. All constructs were sub-cloned into p-3×Flag-Myc-CMV expression vector. […] Images were acquired from Carl Zeiss confocal microscope system, and the quantification of fluorescent intensity in the nuclear and cytosolic compartments was shown as relative percentage in the graph at the left. […] Tumor size was measure with a caliper at the indicated time points. […] Images were acquired from Carl Zeiss confocal microscope system. […] The tumor size was measured with a caliper at the indicated time points. […]
All procedures involving animals were performed in accordance with the institutional animal welfare guidelines of Taipei Veterans General Hospital. […] Tumor size was measured with calipers^38. […]

T2 sequence (Q9UKV8 whole entry): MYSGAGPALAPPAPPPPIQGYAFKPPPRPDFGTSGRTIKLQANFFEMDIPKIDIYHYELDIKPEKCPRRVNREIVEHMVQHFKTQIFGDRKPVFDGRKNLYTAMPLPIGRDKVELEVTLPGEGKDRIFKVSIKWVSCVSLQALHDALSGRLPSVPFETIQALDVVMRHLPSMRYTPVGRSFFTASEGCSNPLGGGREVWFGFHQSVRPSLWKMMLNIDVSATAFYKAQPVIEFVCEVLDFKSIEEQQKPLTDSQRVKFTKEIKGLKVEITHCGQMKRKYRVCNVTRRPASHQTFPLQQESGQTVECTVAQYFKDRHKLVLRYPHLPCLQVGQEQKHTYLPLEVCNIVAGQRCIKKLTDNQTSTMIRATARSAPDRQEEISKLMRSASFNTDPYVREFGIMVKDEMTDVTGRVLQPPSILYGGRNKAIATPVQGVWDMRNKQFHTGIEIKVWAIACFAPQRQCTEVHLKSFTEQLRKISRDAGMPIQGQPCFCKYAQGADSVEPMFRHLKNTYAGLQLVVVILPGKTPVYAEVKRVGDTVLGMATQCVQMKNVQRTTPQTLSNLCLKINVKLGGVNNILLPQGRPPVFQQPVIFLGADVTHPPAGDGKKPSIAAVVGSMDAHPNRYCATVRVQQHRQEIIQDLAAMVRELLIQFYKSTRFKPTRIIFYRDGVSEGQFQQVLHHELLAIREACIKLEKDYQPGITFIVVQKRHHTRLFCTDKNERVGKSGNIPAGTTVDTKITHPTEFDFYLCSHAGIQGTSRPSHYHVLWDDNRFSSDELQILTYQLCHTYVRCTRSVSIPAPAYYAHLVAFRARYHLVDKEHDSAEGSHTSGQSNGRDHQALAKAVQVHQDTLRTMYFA
T1 sequence (Q9UKV8 whole entry): as above

Row | Molecule | Kd [1] | effect of MSI1/AGO2 binding on downstream mRNA [2] | half-life [3] | effect on MSI1/AGO2 interaction (co-IP immunoblot) [4] | effect on bioluminescent signal of split Gaussia luciferase ([5]; 10 μM peptide, in vitro and in vivo) | time to significant cellular uptake ([6]; 05 MG cells) | EC50 ([6]; read-out: half-uptake concentration (EC50), fluorescein labeled peptides, 05 MG cell line) | translocation of MSI1 in 05 MG cells [7] | tumor volume at day 22 [8] | bioluminescent signal of split Gaussia luciferase ([5]; in the presence of cisplatin, IVIS)
1 | YQFPEFRVERTPLPSGRKKRRQRRRPPQ [TAT-11] | 3.33 µM | reversed | ≤ 4 h | effectively abrogated the MSI1/AGO2 interaction | dramatically turned down the bioluminescent signal in vitro and in vivo | within one hour | 9.1 µM |  |  | 
2 | N.N.[Cl][Pt][Cl] [cisplatin] |  |  |  |  |  |  |  | induced | 774.365 mm^3 | increase of the bioluminescent signal
